Structures are written as SMILES.

Holding throughout (assay type): in vivo
The test system of test [1] is Alopecurus myosuroides (ALOMY). Put plainly: Example B pre-emergence herbicidal activity. The following applies: 312 h, rate 250 g/ha, evaluated after 13 days, read-out: Pre-Emergence Activity ALOMY (100=total damage to plant; 0=no damage to plant). The method, then: (§1) Seeds of a variety of test species were sown in standard soil in pots. After cultivation for one day (pre-emergence) or after 8 days cultivation (post-emergence) under controlled conditions in a glasshouse (at 24/16° C., day/night; 14 hours light; 65% humidity), the plants were sprayed with an aqueous spray solution derived from the formulation of the technical active ingredient in acetone/water (50:50) solution containing 0.5% Tween 20 (polyoxyethelyene sorbitan monolaurate, CAS RN 9005-64-5).
(§2) The test plants were then grown in a glasshouse under controlled conditions in a glasshouse (at 24/16° C., day/night; 14 hours light; 65% humidity) and watered twice daily. After 13 days for pre and post-emergence, the test was evaluated (100=total damage to plant; 0=no damage to plant).
(§3) Alopecurus myosuroides (ALOMY), Avena fatua (AVEFA), Setaria faberi (SETFA), Echinochloa crus-galli (ECHCG), Solanum nigrum (SOLNI) and Amaranthus retoflexus (AMARE)

Test [2] concerns Amaranthus retoflexus (AMARE). Put plainly: Example B pre-emergence herbicidal activity. The following applies: Amaranthus retroflexus, 312 h, rate 250 g/ha, evaluated after 13 days, read-out: Pre-Emergence Activity AMARE (100=total damage to plant; 0=no damage to plant). The procedure:
as §1, §2, §3

Test [3] relates to Avena fatua (AVEFA). Put plainly: Example B pre-emergence herbicidal activity. The following applies: 312 h, rate 250 g/ha, evaluated after 13 days, read-out: Pre-Emergence Activity AVEFA (100=total damage to plant; 0=no damage to plant). The procedure: as §1, §2, §3
Test [4] has as its system Echinochloa crus-galli (ECHCG). Put plainly: Example B pre-emergence herbicidal activity. The following applies: 312 h, rate 250 g/ha, evaluated after 13 days, read-out: Pre-Emergence Activity ECHCG (100=total damage to plant; 0=no damage to plant). The procedure: as §1, §2, §3
Test [5] concerns Setaria faberi (SETFA). Put plainly: Example B pre-emergence herbicidal activity. The following applies: 312 h, rate 250 g/ha, evaluated after 13 days, read-out: Pre-Emergence Activity SETFA (100=total damage to plant; 0=no damage to plant). The method, then:
as §1, §2, §3

Test [6] relates to Alopecurus myosuroides (ALOMY). Put plainly: Example B post-emergence herbicidal activity. The following applies: 312 h, rate 250 g/ha, evaluated after 13 days, read-out: Post-emergence activity ALOMY (100=total damage to plant; 0=no damage to plant). The procedure: as §1, §2, §3
Test [7] deals with Amaranthus retoflexus (AMARE). Put plainly: Example B post-emergence herbicidal activity. The following applies: Amaranthus retroflexus, 312 h, rate 250 g/ha, evaluated after 13 days, read-out: Post-emergence activity AMARE (100=total damage to plant; 0=no damage to plant). The method, then:
as §1, §2, §3

Test [8] deals with Avena fatua (AVEFA). Put plainly: Example B post-emergence herbicidal activity. The following applies: 312 h, rate 250 g/ha, evaluated after 13 days, read-out: Post-emergence activity AVEFA (100=total damage to plant; 0=no damage to plant). The procedure:
as §1, §2, §3

In test [9] the test system is Echinochloa crus-galli (ECHCG). Put plainly: Example B post-emergence herbicidal activity. The following applies: 312 h, rate 250 g/ha, evaluated after 13 days, read-out: Post-emergence activity ECHCG (100=total damage to plant; 0=no damage to plant). The procedure: as §1, §2, §3
Test [10] has as its system Setaria faberi (SETFA). Briefly: Example B post-emergence herbicidal activity. The following applies: 312 h, rate 250 g/ha, evaluated after 13 days, read-out: Post-emergence activity SETFA (100=total damage to plant; 0=no damage to plant). The method, then: as §1, §2, §3

Take `CCc1sc(-c2ccc(Cl)cc2)nc1C1=C(OC(=C(C#N)C#N)C(F)(F)F)[C@@H]2CC[C@@H](C2)C1=O` [Compound P9]: the pest or weed control at 250 g/ha in [1] was 90%; in [2], 0%; in the test on Avena fatua (AVEFA) [3] it was 100%; in test [4], 90%; with Setaria faberi (SETFA) [5], 100%; in test [6] it was 100%. Further, the pest or weed control at 250 g/ha in test [7] is 0%; in the test on Avena fatua (AVEFA) [8] it was 100%; in [9] it was 100%; with Setaria faberi (SETFA) [10], 100%.

In the case of `CCOC(=O)COC1=C(c2sc(-c3ccc(Cl)cc3)nc2C)C(=O)[C@H]2CC[C@@H]1C2` [Compound P11], the pest or weed control at 250 g/ha was 0% in [1]; 0% in test [2]; 0% with Avena fatua (AVEFA) [3]; 0% in [4]; 80% in the test on Setaria faberi (SETFA) [5]; 20% in [6]. In addition, the pest or weed control at 250 g/ha in [7] came out at 0%; in the test with Avena fatua (AVEFA) [8], 20%; in test [9], 80%; in the test with Setaria faberi (SETFA) [10], 80%.

`CC(=O)OC1=C(c2nc(-c3ccc(Br)cc3C)sc2C)C(=O)[C@H]2CC[C@@H]1C2` [Compound P12]: the pest or weed control at 250 g/ha in test [1] amounted to 30%; in test [2], 0%; in the test on Avena fatua (AVEFA) [3] it was 20%; in [4] it was 20%; in the test on Setaria faberi (SETFA) [5] it was 100%; in test [6], 100%. Moreover, the pest or weed control at 250 g/ha in test [7] came to 0%; in the test with Avena fatua (AVEFA) [8] it was 90%; in test [9] it was 100%; with Setaria faberi (SETFA) [10], 100%.

As for `Cc1cc(Br)ccc1-c1nc(C2=C(OC(=O)C3CC3)[C@@H]3CC[C@@H](C3)C2=O)c(C)s1` [Compound P13], the pest or weed control at 250 g/ha in [1] stood at 70%; in test [2], 0%; in the test on Avena fatua (AVEFA) [3], 100%; in test [4], 50%; in the test with Setaria faberi (SETFA) [5] it was 100%; in [6], 90%. The pest or weed control at 250 g/ha in test [7] is 0%; in the test on Avena fatua (AVEFA) [8], 90%; in [9], 100%; in the test with Setaria faberi (SETFA) [10] it was 100%.

As to `Cc1cc(Br)ccc1-c1nc(C2=C(OC(=O)C(C)(C)C)[C@@H]3CC[C@@H](C3)C2=O)c(C)s1` [Compound P14], the pest or weed control at 250 g/ha in test [1] was 70%; in [2], 0%; with Avena fatua (AVEFA) [3], 100%; in [4], 100%; in the test with Setaria faberi (SETFA) [5] it was 100%; in [6], 100%. Further, the pest or weed control at 250 g/ha in [7] amounted to 0%; in the test on Avena fatua (AVEFA) [8], 90%; in [9] it was 100%; with Setaria faberi (SETFA) [10], 100%.

Take `CCc1sc(-c2ccc(C)cc2)nc1C1=C(OC(C)=O)[C@H]2CC[C@H](C2)C1=O` [Compound P15]: the pest or weed control at 250 g/ha came out at 90% in test [1]; 0% in [2]; 60% in the test on Avena fatua (AVEFA) [3]; 100% in test [4]; 90% with Setaria faberi (SETFA) [5]; 100% in [6]. Besides, the pest or weed control at 250 g/ha in test [7] was determined as 0%; with Avena fatua (AVEFA) [8], 90%; in test [9], 100%; in the test on Setaria faberi (SETFA) [10], 100%.

On to `Cc1sc(-c2ccc(OC(F)F)cc2Cl)nc1C1=C(OC(=O)C(C)(C)C)[C@@H]2CC[C@@H](C2)C1=O` [Compound P17], for which the pest or weed control at 250 g/ha in test [1] was 80%; in [2] it was 0%; in the test with Avena fatua (AVEFA) [3], 50%; in test [4], 100%; in the test on Setaria faberi (SETFA) [5], 100%; in test [6], 90%. Also, the pest or weed control at 250 g/ha in test [7] is 0%; with Avena fatua (AVEFA) [8] it was 80%; in test [9], 100%; with Setaria faberi (SETFA) [10], 100%.

For the compound `CC(=O)OC1=C(c2nc(-c3ccc(Cl)cc3)ncc2C)C(=O)[C@H]2CC[C@@H]1C2` [Compound P18], the pest or weed control at 250 g/ha was 20% in [1]; 0% in [2]; 0% with Avena fatua (AVEFA) [3]; 70% in test [4]; 60% in the test with Setaria faberi (SETFA) [5]; 10% in test [6]. The pest or weed control at 250 g/ha in [7] came to 40%; in the test with Avena fatua (AVEFA) [8], 0%; in [9], 80%; with Setaria faberi (SETFA) [10], 90%.

As for `CC(=O)OC1=C(c2nc(-c3ccc(Cl)cc3)ncc2C)C(=O)[C@@H]2C[C@H]1C2(C)C` [Compound P19], the pest or weed control at 250 g/ha in [1] came out at 10%; in test [2], 0%; in the test on Avena fatua (AVEFA) [3], 0%; in [4] it was 20%; with Setaria faberi (SETFA) [5] it was 90%; in [6], 20%. Besides, the pest or weed control at 250 g/ha in test [7] was determined as 0%; in the test with Avena fatua (AVEFA) [8], 0%; in test [9], 90%; in the test on Setaria faberi (SETFA) [10], 90%.

As for `CC(C)(C)C(=O)OC1=C(c2csc(-c3ccc(Cl)cc3)n2)C(=O)[C@@H]2CC[C@H]1C2` [Compound P22], the pest or weed control at 250 g/ha was found to be 0% in test [1]; 0% in test [2]; 0% in the test on Avena fatua (AVEFA) [3]; 0% in [4]; 30% with Setaria faberi (SETFA) [5]; 0% in [6]. The pest or weed control at 250 g/ha came out at 0% in test [7], 0% in the test with Avena fatua (AVEFA) [8], 20% in test [9] and 70% in the test with Setaria faberi (SETFA) [10].

As for `Cc1sc(-c2cccs2)nc1C1C(=O)[C@@H]2CC[C@@H](C2)C1=O` (stereo partly drawn) [Compound T2], the pest or weed control at 250 g/ha in test [1] was found to be 0%; in test [2] it was 0%; in the test on Avena fatua (AVEFA) [3], 0%; in test [4], 0%; in the test with Setaria faberi (SETFA) [5], 50%; in test [6], 0%. Moreover, the pest or weed control at 250 g/ha is 0% in test [7], 0% in the test on Avena fatua (AVEFA) [8], 30% in test [9] and 70% in the test on Setaria faberi (SETFA) [10].

In the case of `Cc1sc(-c2ccc(Cl)cc2Cl)nc1C1C(=O)[C@@H]2CC[C@@H](C2)C1=O` (stereo partly drawn) [Compound T3], the pest or weed control at 250 g/ha came out at 60% in test [1]; 0% in test [2]; 0% in the test on Avena fatua (AVEFA) [3]; 80% in test [4]; 90% in the test with Setaria faberi (SETFA) [5]; 90% in [6]. Moreover, the pest or weed control at 250 g/ha is 0% in test [7], 60% with Avena fatua (AVEFA) [8], 100% in test [9] and 100% in the test on Setaria faberi (SETFA) [10].

The values are drawn from US8598365B2, “Herbicides” (Syngenta Limited, priority 2007, dated 2013).
